From patent publication US8058270B2, “Dihydropteridinones for the treatment of cancer diseases” (Boehringer Ingelheim International GmbH, priority 2004, dated 2011)

What was measured:
[1] = system: cultivated human tumour cells; assay: Alamar Blue cytotoxicity assay (general); format: cell-based; settings: summary in words, see Table 1
Source text: Alamar Blue™ Cytotoxicity Assays
The Alamar Blue™ assay is designed to measure quantitatively the proliferation of cells by incorporating a fluorometric/colorimetric growth indicator based on the detection of metabolic activity.
Cell culture: The various human tumor cell lines can be purchased from American Type Culture Collection (ATCC) or the German Collection of Microorganisms and Cell Cultures (DSMZ) and cultivated in 75 to 175 cm^2 tissue culture flasks in the medium indicated by the supplier. The cells are maintained at 37° C. and 5% CO2 in a humidified atmosphere, with an appropriate split ratio. Logarithmically growing cells are used for the assays.
Assay conditions: On day one of the experiment 1000-4000 cells (in 100 μl medium) are seeded into each well of a sterile 96-well plate. The number of cells used is dependent on the growth rate and size of the cells. Eight wells on each plate are left free to accommodate for controls (4 wells for medium plus reduced AlamarBlue™, and 4 wells for medium plus oxidized AlamarBlue™). The plates are kept in the incubator overnight. On day two of the experiment serial dilutions of the inhibitor are prepared in medium containing 0.1% DMSO. […] After 4-5 h of incubation, the plates are measured in a fluorescence spectrophotometer (excitation 530 nm, emission 590 nm, slits 15, integrate time 0.1). […]

[2] = system: cultivated human tumour cells; assay: FACS analysis on PI stained tumor cells, cell cycle progression (general); format: cell-based; settings: summary in words, see Table 1
Source text: FACS Analysis on PI Stained Tumor Cells
Propidium iodine (PI) binds stoichiometrically to double stranded DNA and thus is a suitable agent to measure the DNA content of cells in order to determine the percentage of cells residing in various cell cycle stages (G0/1-, S- and G2/M-phases), whereas cells in G0 or G1 phase do have a diploid DNA content (2N) cells in G2 and M-phase (mitosis) do have a doubled (4N) DNA content.
Cell culture: The various human tumor cell lines can be purchased from American Type Culture Collection (ATCC) or the German Collection of Microorganisms and Cell Cultures (DSMZ) and cultivated in 75 to 175 cm^2 tissue culture flasks in the medium indicated by the supplier. […]
Data analysis: Analysis of the DNA content of the cells can be performed using a FACS analyzer equipped with an argon laser (500 mW, emission 488 nm) and the use of the DNA Cell Quest analysis software (Beckton Dickinson). The logarithmic PI fluorescence is determined in a band-pass filter (Beckton Dickinson 585/43). Quantification of the cell populations residing in the individual cell cycle phases (e.g. G0/G1-, S- and G2/M-phases) is done with the ModFit LT software package from Becton Dickinson. An EC50 value for cells arrested at the G2/M-phase of the cell cycle is calculated by using a sigmoidal curve analysis program (Graph Pad Prism version 3.03).

CC[C@@H]1C(=O)N(C)c2cnc(Nc3ccc(C(=O)NC4CCN(C)CC4)cc3OC)nc2N1C1CCCC1 [Example 46, 4-[[(7R)-8-cyclopentyl-7-ethyl-5,6,7,8-tetrahydro-5-methyl-6-oxo-2-pteridinyl]amino]-3-methoxy-N-(1-methyl-4-piperidinyl)-benzamide]
activity in cytotoxicity tests on cultivated human tumour cells [1]: good to very good activity | inhibitory effect on cell cycle progression by FACS analysis [2]: good to very good activity
